Results on 6 compounds are retold here after patent EP0071535B1, “(4-(2 and/or 3-Thienylacetamido)-phenoxy)-hydroxyaminopropanes, their preparation, their therapeutic use and intermediates” (CARPIBEM (CENTRE D'ACTIVITE ET DE RECHERCHE PHARMACEUTIQUE …, priority 1981, dated 1983).

Assay [1] concerns effets β2 (diminution de la pression artérielle diastolique) de l'isoprénaline. Put plainly: β-blocking activity: inhibition of the β2 effects of intravenous isoprenaline in anaesthetised dogs. To be noted: dog; for inhibition at 0.001 mg/kg / inhibition at 0.01 mg/kg / inhibition at 0.1 mg/kg / inhibition at 0.003 mg/kg: Canis lupus familiaris, iv, inhibition given with negative sign, read-out: % d'inhibition des effets β2^⊕ de l'Isoprénaline; for inhibition at 0.001 mg/kg: 0,001 mg/kg I.V.; for inhibition at 0.01 mg/kg: 0,010 mg/kg I.V.; for inhibition at 0.1 mg/kg: 0,100 mg/kg I.V.; for inhibition at 0.003 mg/kg: 0,003 mg/kg I.V. In kind it is in vivo, chiens. How it is done:
(§1) Des chiens tout-venants mâles ou femelles sont anesthésiés au mébubarbital sodique (30 mg/kg I.V.) et ventilés artificiellement par une pompe Pesty RPP. Ils sont supplémentés en oxygène.
(§2) On mesure: • - la pression carotidienne systolique et diastolique • - la force contractile du myocarde.
(§3) Les signaux sont amplifiés et enregistrés sur Dynograph Beckman.
(§4) L'activité β bloquante adrénergique a été étudiée vis-à-vis des effets β1 (augmentation de la force contractile du myocarde) et des effets P2 (diminution de la pression artérielle disstolique) de l'isoprénaline administrée par voie intraveineuse.
(§5) On calcule le pourcentsge d'inhibition des effets β1 et des effets β2 de l'isoprénaline en fonction des doses (mg.kg I.V.) des différents exemples.
(§6) Les exemples sont injectés dans le veine saphène aux doses (exprimées en base) de: 0,0003 0,001 0,003 0,01 0,1 1,0 et 4,0 ou 8,0 mg.kg-1.

In assay [2] the test system is effets β1 (augmentation de la force contractile du myocarde) de l'isoprénaline. Put plainly: β-blocking activity: inhibition of the β1 effects of intravenous isoprenaline in anaesthetised dogs. In kind it is in vivo, chiens. To be noted: dog; for inhibition at 0.001 mg/kg / inhibition at 0.01 mg/kg / inhibition at 0.1 mg/kg / inhibition at 0.003 mg/kg: Canis lupus familiaris, iv, inhibition given with negative sign, read-out: % d'inhibition des effets β1^(+) de l'Isoprénaline; for inhibition at 0.001 mg/kg: 0,001 mg/kg I.V.; for inhibition at 0.01 mg/kg: 0,010 mg/kg I.V.; for inhibition at 0.1 mg/kg: 0,100 mg/kg I.V.; for inhibition at 0.003 mg/kg: 0,003 mg/kg I.V. Here is the method:
as §1, §2, §3, §4, §5, §6

Assay [3] concerns rat génétiquement hypertendu: Rat OKAMOTO. As to the kind of experiment: Antihypertensive activity in spontaneously hypertensive rats (tail-cuff systolic pressure and heart rate after oral dosing). The assay is classed as in vivo. Here is the method: Des rats mâles âgés de 13 à 21 semaines présentant une hypertension spontanée génétiquement transmissible (souche OKAMOTO provenance IFFA CREDO) sont placés dans une enceinte thermostatée à 38°C. Les rats sont laissés en situation libre. La pression artérielle est mesurée par un sphygmomanomètre Narco Biosystem. Un manchon est placé à la base de la queue et un détecteur enregistre le pouls en aval du manchon. Celui-ci est gonflé jusqu'à suppression du pouls il est ensuite progressivement dégonflé. La pression mesurée à la reprise des battements cardiaques est la pression artérielle systolique. On calcule la fréquence cardiaque à partir de l'enregistrement du pouls artériel. Les produits à étudiar sont mis en suspension el administrés par voie orale sous un volume de 1 ml pour 100 g de poids corporel. Les mesures sont répétées à intervalles réguliers.
Les valeurs moyennes avant traitement pour les différents lots de rats sont pour la pression artérielle systolique de 190 à 200 mmHg et pour la fréquence cardiaque de 305 à 350 battements par minute.
Le tableau III ci-après donne la moyenne des variations de la pression systolique (mmHg) de la fréquence cardisque (battements/minute) et les écarts type à la moyenne obtenus 1 heure 3 heures et 5 heures après administration orale.

Where [4] appears, read: 0.1 mg.kg^-1 voie intraveineuse.
[5] abbreviates: 1.0 mg.kg^-1 voie intraveineuse.
Where [6] appears, read: 8.0 mg.kg^-1 voie intraveineuse.

As a reminder, the inhibition is the change of the read-out against control, counted positive when it falls. Take `CC(C)NCC(O)COc1ccc(NC(=O)Cc2ccsc2)cc1C#N` (stereo not shown) [exemple 10, 1-[2-cyano 4-(3-thiénylacétamido)phénoxy] 3-isopropylamino 2-propanol]: in assay [1], the inhibition at 0.001 mg/kg is -21%, the inhibition at 0.01 mg/kg was -33% and the inhibition at 0.1 mg/kg is -39%. Besides, in assay [2], the inhibition at 0.001 mg/kg was -22%, the inhibition at 0.01 mg/kg was -47% and the inhibition at 0.1 mg/kg is -91%. In addition, in assay [3] (128 mg.kg^-1 V.O), the “Fréquence cardiaque Δ (battements/min) T+1 heure m (sm)” value is “+25 (15) battements/min”, the “Pression systolique Δ (mmHg) T+1 heure m (sm)” value was -13 (12) mmHg, the “Fréquence cardiaque Δ (battements/min) T+3 heures m (sm)” value is “+28 (7) battements/min” and the “Pression systolique Δ (mmHg) T+3 heures m (sm)” value is reported as -5 (9) mmHg. Also, in assay [3] (128 mg.kg^-1 V.O), the “Fréquence cardiaque Δ (battements/min) T+5 heures m (sm)” value was “+25 (7) battements/min” and the “Pression systolique Δ (mmHg) T+5 heures m (sm)” value is given as -26 (8) mmHg.

In the case of `C=CCc1cc(NC(=O)Cc2cccs2)ccc1OCC(O)CNC(C)(C)C` (stereo not shown) [exemple 11, 1-[2-allyl 4-(2-thiénylacétamido)phénoxy] 3-ter-butylamino 2-propanol], the “Pourcentages d'inhibition des effets β2 de l'Isoprénaline” value in assay [1] (setting [4]) worked out at 17%. In addition, the “Pourcentages d'inhibition des effets β2 de l'Isoprénaline” value in assay [1] (setting [5]) is recorded as 77%. The “Pourcentages d'inhibition des effets β2 de l'Isoprénaline” value in assay [1] (setting [6]) stood at 100%. In assay [1], the inhibition at 0.001 mg/kg was found to be 0%, the inhibition at 0.003 mg/kg came out at 0%, the inhibition at 0.01 mg/kg amounted to 0% and the inhibition at 0.1 mg/kg is -17%. For the same compound, the “Pourcentages d'inhibition des effets β1 de l'Isoprénaline” value in assay [2] (0.001 mg.kg^-1 voie intraveineuse) worked out at 11%. Further, the “Pourcentages d'inhibition des effets β1 de l'Isoprénaline” value in assay [2] (0.003 mg.kg^-1 voie intraveineuse) is 37%. The “Pourcentages d'inhibition des effets β1 de l'Isoprénaline” value in assay [2] (0.01 mg.kg^-1 voie intraveineuse) worked out at 70%. Besides, the “Pourcentages d'inhibition des effets β1 de l'Isoprénaline” value in assay [2] (setting [4]) stood at 100%. Further, the “Pourcentages d'inhibition des effets β1 de l'Isoprénaline” value in assay [2] (setting [5]) worked out at 100%. Moreover, the “Pourcentages d'inhibition des effets β1 de l'Isoprénaline” value in assay [2] (setting [6]) was determined as 100%. Moreover, in assay [2], the inhibition at 0.001 mg/kg is -11%, the inhibition at 0.003 mg/kg is -37%, the inhibition at 0.01 mg/kg is -70% and the inhibition at 0.1 mg/kg is -100%. Further, in assay [3] (64 mg.kg^-1 V.O), the “Fréquence cardiaque Δ (battements/min) T+1 heure m (sm)” value is reported as “+7 (8) battements/min”, the “Pression systolique Δ (mmHg) T+1 heure m (sm)” value was -54 (1) mmHg, the “Fréquence cardiaque Δ (battements/min) T+3 heures m (sm)” value is given as “+10 (9) battements/min” and the “Pression systolique Δ (mmHg) T+3 heures m (sm)” value is listed as -49 (10) mmHg. Besides, in assay [3] (64 mg.kg^-1 V.O), the “Fréquence cardiaque Δ (battements/min) T+5 heures m (sm)” value is reported as 0 (9) battements/min and the “Pression systolique Δ (mmHg) T+5 heures m (sm)” value is listed as -44 (11) mmHg.

Take `C=CCc1cc(NC(=O)Cc2ccsc2)ccc1OCC(O)CNC(C)(C)C` (stereo not shown) [exemple 38, 1-[2-allyl 4-(3-thiénylacétamido)phénoxy] 3-terbutylamino 2-propanol]: in assay [1], the inhibition at 0.001 mg/kg is -4%, the inhibition at 0.003 mg/kg was -4%, the inhibition at 0.01 mg/kg was -6% and the inhibition at 0.1 mg/kg is -27%. In assay [2], the inhibition at 0.001 mg/kg was -5%, the inhibition at 0.003 mg/kg is -35%, the inhibition at 0.01 mg/kg is -73% and the inhibition at 0.1 mg/kg was -100%. In addition, in assay [3] (64 mg.kg^-1 V.O), the “Fréquence cardiaque Δ (battements/min) T+1 heure m (sm)” value was “+39 (9) battements/min”, the “Pression systolique Δ (mmHg) T+1 heure m (sm)” value is -31 (5) mmHg, the “Fréquence cardiaque Δ (battements/min) T+3 heures m (sm)” value is reported as “+21 (9) battements/min” and the “Pression systolique Δ (mmHg) T+3 heures m (sm)” value was -26 (5) mmHg. In assay [3] (64 mg.kg^-1 V.O), the “Fréquence cardiaque Δ (battements/min) T+5 heures m (sm)” value is reported as “+29 (13) battements/min” and the “Pression systolique Δ (mmHg) T+5 heures m (sm)” value is recorded as -34 (7) mmHg.

On to `CC(C)(C)NCC(O)COc1ccc(NC(=O)Cc2cccs2)cc1Br` (stereo not shown) [exemple 39, 1-[2-bromo 4-(2-thiénylacétamido)phénoxy] 3-terbutylamino 2-propanol], for which, in assay [1], the inhibition at 0.001 mg/kg is 0%, the inhibition at 0.003 mg/kg turned out to be 0%, the inhibition at 0.01 mg/kg is -5% and the inhibition at 0.1 mg/kg was -49%. Further, in assay [2], the inhibition at 0.001 mg/kg was -11%, the inhibition at 0.003 mg/kg is -65%, the inhibition at 0.01 mg/kg was -89% and the inhibition at 0.1 mg/kg was -100%. In addition, in assay [3] (128 mg.kg^-1 V.O), the “Fréquence cardiaque Δ (battements/min) T+1 heure m (sm)” value is listed as “+47 (15) battements/min”, the “Pression systolique Δ (mmHg) T+1 heure m (sm)” value was -33 (9) mmHg, the “Fréquence cardiaque Δ (battements/min) T+3 heures m (sm)” value is listed as “+56 (4) battements/min” and the “Pression systolique Δ (mmHg) T+3 heures m (sm)” value is on record as -34 (11) mmHg. In assay [3] (128 mg.kg^-1 V.O), the “Fréquence cardiaque Δ (battements/min) T+5 heures m (sm)” value is recorded as “+47 (4) battements/min” and the “Pression systolique Δ (mmHg) T+5 heures m (sm)” value is recorded as -43 (9) mmHg.

`CC(C)NCC(O)COc1ccc(NC(=O)Cc2cccs2)cc1Br` (stereo not shown) [exemple 40, 1-[2-bromo 4-(2-thiénylacétamido)phénoxy] 3-isopropylamino 2-propanol]: in assay [1], the inhibition at 0.001 mg/kg came to 0%, the inhibition at 0.003 mg/kg was 0%, the inhibition at 0.01 mg/kg came out at 0% and the inhibition at 0.1 mg/kg was -4%. In assay [2], the inhibition at 0.001 mg/kg was found to be 0%, the inhibition at 0.003 mg/kg was -19%, the inhibition at 0.01 mg/kg is -53% and the inhibition at 0.1 mg/kg is -93%. Also, in assay [3] (128 mg.kg^-1 V.O), the “Fréquence cardiaque Δ (battements/min) T+1 heure m (sm)” value is on record as “+23 (23) battements/min”, the “Pression systolique Δ (mmHg) T+1 heure m (sm)” value is reported as -58 (10) mmHg, the “Fréquence cardiaque Δ (battements/min) T+3 heures m (sm)” value is recorded as “+20 (14) battements/min” and the “Pression systolique Δ (mmHg) T+3 heures m (sm)” value was -63 (7) mmHg. Also, in assay [3] (128 mg.kg^-1 V.O), the “Fréquence cardiaque Δ (battements/min) T+5 heures m (sm)” value was “+18 (11) battements/min” and the “Pression systolique Δ (mmHg) T+5 heures m (sm)” value is reported as -63 (3) mmHg.

In the case of `CC(C)(C)NCC(O)COc1ccc(NC(=O)Cc2ccsc2)cc1Br` (stereo not shown) [exemple 41, 1-[2-bromo 4-(3-thiénylacétamido)phénoxy] 3-terbutylamino 2-propanol], in assay [1], the inhibition at 0.001 mg/kg was -3%, the inhibition at 0.003 mg/kg came to 0%, the inhibition at 0.01 mg/kg is -31% and the inhibition at 0.1 mg/kg was -55%. For the same compound, in assay [2], the inhibition at 0.001 mg/kg was -12%, the inhibition at 0.003 mg/kg was -49%, the inhibition at 0.01 mg/kg is -83% and the inhibition at 0.1 mg/kg was -97%. In assay [3] (64 mg.kg^-1 V.O), the “Fréquence cardiaque Δ (battements/min) T+1 heure m (sm)” value is reported as “+57 (18) battements/min”, the “Pression systolique Δ (mmHg) T+1 heure m (sm)” value is -44 (14) mmHg, the “Fréquence cardiaque Δ (battements/min) T+3 heures m (sm)” value is given as “+55 (15) battements/min” and the “Pression systolique Δ (mmHg) T+3 heures m (sm)” value is -30 (10) mmHg. Moreover, in assay [3] (64 mg.kg^-1 V.O), the “Fréquence cardiaque Δ (battements/min) T+5 heures m (sm)” value is “+68 (16) battements/min” and the “Pression systolique Δ (mmHg) T+5 heures m (sm)” value is -33 (12) mmHg.
